Data as given in PMC10394516, “The pharmacokinetic profile of brensocatib and its effect on pharmacodynamic biomarkers including NE, PR3, and CatG in various rodent species” (Frontiers in Pharmacology, 2023).

Tests used:
[1] = Plasma PK of brensocatib, BID vs QD oral dosing, C57BL/6 mice; format: in vivo; details: both sexes; for AUC(0-t): first 24 h
Method: (§1) A dose frequency study was performed in male and female mice (C57BL/6 & BALB/c) and in male and female rats (Sprague Dawley & Wistar) investigating twice daily (BID) versus once daily (QD) brensocatib administration.
(§2) Briefly, animals were weighed and randomized into different treatment groups. In total, three different dosing levels of brensocatib were tested in each species and strain; each QD dosing level was equivalent to 1.5-times the matching daily BID dose. For BID dosing, the second daily dose was administered 8-h post the morning dose. C57BL/6 mice were dosed either BID or QD for 7 consecutive days at 0/0, 0.5/0.75, 2/3, and 20/30 mg/kg/day (BID/QD). BALB/c mice were dosed for 7 consecutive days at 0/0, 0.2/0.3, 2/3, and 20/30 mg/kg/day (BID/QD). SD rats were dosed for 9 consecutive days at 0/0, 0.2/0.3, 2/3, and 20/30 mg/kg/day (BID/QD). Wistar rats were dosed for 7 consecutive days at 0/0, 0.2/0.3, 2/3, and 20/30 mg/kg/day (BID/QD).
(§3) For sparse PK analysis via LC-MS/MS, plasma was collected from animals during the first 24 h of dosing at prescribed timepoints. The timepoints included 1, 3, 8, and 24 h post initial dose for QD groups, and 1, 3, 8, 9, 11, and 24 h post initial dose for BID groups. Note that the 8- and 24-h plasma samples were prior to the afternoon dose for BID groups and prior to the second day dose for all groups, respectively. See section Quantification of Plasma Brensocatib Concentrations for details.
(§4) Blood was collected via the tail-vein technique and centrifuged to separate and collect the plasma. The resulting plasma samples were stored at −20°C or lower until LC-MS/MS analysis.
(§5) The plasma concentration of brensocatib was quantified by liquid chromatography, tandem mass spectrometry (LC-MS/MS), a Sciex API6500 mass spectrometer (SCIEX, Framingham, MA). Two brensocatib stock solutions were prepared, one for the preparation of the 8-point standard (STD) curve spiking solutions and the other for the preparation of the quantitative control spiking solutions (QCs) at three levels. The STD curve and QCs were prepared by 2% spiking from the spiking solutions into mouse or rat plasma. The samples were extracted using a protein precipitation method, where 10 µL of sample was mixed with 100 µL of internal standard working solution (100 ng/mL ^6C13-brensocatib in methanol), vortexed for 5 s, and centrifuged at 21,130 × g at 4°C for 15 min. The supernatant was mixed with an equal volume of water and 10 μL was injected into a Phenomenex Kinetex Biphenyl column (3.0 mm × 50 mm; 2.6 μm; 65°C; 0.8 mL/min) with an elution gradient consisting of mobile phase A (10 mM ammonium formate) and mobile phase B (methanol) over 2 min from 5% to 95% B. The mass spectrometer was equipped with an atmospheric-pressure chemical ionization source operating in positive mode.
(§6) Individual plasma concentrations were plotted and the area under the curve (AUC) was calculated using the trapezoid method. The elimination rate constant (k e ) was calculated as the negative natural log of the plasma concentration over time (Eq. 1) starting at the max concentration (C max) after the most recent dose to the last measurable plasma concentration between doses. The calculated k e was used to define the half-life (t 1/2 ) based on Eq. 2; where 0.693 is the natural log of 2 and assumes a first-order reaction. ke=−ln∆C/∆t (1) t1/2=0.693/ke (2)

[2] = Plasma PK of brensocatib, BID vs QD oral dosing, Wistar rats; format: in vivo; details: both sexes, rat; for half-life: Wistar, po; for AUC(0-t): first 24 h
Method: as §1, §2, §3, §4, §5, §6

Q: Which results are given for `Cn1c(=O)oc2ccc(-c3ccc(C[C@@H](C#N)NC(=O)[C@@H]4CNCCCO4)cc3)cc21` [brensocatib]?
A: half-life ([1]; C57BL/6, BALB/c, mouse, oral, mice (both strains), across BID and QD regimens, sparse PK, read-out: half-life (overall) (converted)): ~2.5 h; half-life ([1]; C57BL/6, mouse, po, 0.5 mg/kg/day, C57BL/6 mice, oral BID, 0.5 mg/kg/day, evening dose, read-out: t1/2, PM dose (converted)): 0.63 ± 0.01 h; half-life ([1]; C57BL/6, mouse, po, 0.5 mg/kg/day, C57BL/6 mice, oral BID, 0.5 mg/kg/day, morning dose, read-out: t1/2, AM dose (converted)): 0.71 ± 0.23 h; half-life ([1]; C57BL/6, mouse, po, 0.75 mg/kg/day, C57BL/6 mice, oral QD, 0.75 mg/kg/day, read-out: t1/2, AM dose (converted)): 9.62 ± 0.95 h; half-life ([1]; C57BL/6, mouse, po, 2 mg/kg/day, C57BL/6 mice, oral BID, 2 mg/kg/day, evening dose, read-out: t1/2, PM dose (converted)): 2.35 ± 0.35 h; half-life ([1]; C57BL/6, mouse, po, 2 mg/kg/day, C57BL/6 mice, oral BID, 2 mg/kg/day, morning dose, read-out: t1/2, AM dose (converted)): 2.07 ± 0.42 h; half-life ([1]; C57BL/6, mouse, po, 3 mg/kg/day, C57BL/6 mice, oral QD, 3 mg/kg/day, read-out: t1/2, AM dose (converted)): 6.38 ± 0.56 h; half-life ([1]; C57BL/6, mouse, po, 20 mg/kg/day, C57BL/6 mice, oral BID, 20 mg/kg/day, evening dose, read-out: t1/2, PM dose (converted)): 2.36 ± 0.05 h; half-life ([1]; C57BL/6, mouse, po, 20 mg/kg/day, C57BL/6 mice, oral BID, 20 mg/kg/day, morning dose, read-out: t1/2, AM dose (converted)): 2.41 ± 0.42 h; half-life ([1]; C57BL/6, mouse, po, 30 mg/kg/day, C57BL/6 mice, oral QD, 30 mg/kg/day, read-out: t1/2, AM dose (converted)): 3.01 ± 0.18 h; AUC(0-t) ([1]; mouse, C57BL/6 mice, oral BID, 0.5 mg/kg/day, read-out: AUC0–24h): 0.294 ± 0.049 µg·h/mL; AUC(0-t) ([1]; mouse, C57BL/6 mice, oral BID, 0.5 mg/kg/day, read-out: AUC(0–24)): 0.7 ± 0.12 µM·h; AUC(0-t) ([1]; mouse, C57BL/6 mice, oral BID, 2 mg/kg/day, read-out: AUC0–24h): 2.01 ± 0.154 µg·h/mL; AUC(0-t) ([1]; mouse, C57BL/6 mice, oral BID, 2 mg/kg/day, read-out: AUC(0–24)): 4.79 ± 0.37 µM·h; AUC(0-t) ([1]; mouse, C57BL/6 mice, oral BID, 20 mg/kg/day, read-out: AUC0–24h): 15.9 µg·h/mL; AUC(0-t) ([1]; mouse, C57BL/6 mice, oral BID, 20 mg/kg/day, read-out: AUC(0–24)): 37.7 ± 8.33 µM·h; AUC(0-t) ([1]; mouse, C57BL/6 mice, oral QD, 0.75 mg/kg/day, read-out: AUC0–24h): 0.735 ± 0.108 µg·h/mL; AUC(0-t) ([1]; mouse, C57BL/6 mice, oral QD, 0.75 mg/kg/day, read-out: AUC(0–24)): 1.75 ± 0.26 µM·h; AUC(0-t) ([1]; mouse, C57BL/6 mice, oral QD, 3 mg/kg/day, read-out: AUC0–24h): 2.84 ± 0.302 µg·h/mL; AUC(0-t) ([1]; mouse, C57BL/6 mice, oral QD, 3 mg/kg/day, read-out: AUC(0–24)): 6.76 ± 0.72 µM·h; AUC(0-t) ([1]; mouse, C57BL/6 mice, oral QD, 30 mg/kg/day, read-out: AUC0–24h): 52.6 µg·h/mL; AUC(0-t) ([1]; mouse, C57BL/6 mice, oral QD, 30 mg/kg/day, read-out: AUC(0–24)): 125 ± 16 µM·h; half-life ([2]; 0.2 mg/kg/day, oral BID, 0.2 mg/kg/day, evening dose, read-out: t1/2, PM dose (converted)): 6.45 ± 0.55 h; half-life ([2]; 0.2 mg/kg/day, oral BID, 0.2 mg/kg/day, morning dose, read-out: t1/2, AM dose (converted)): 5.48 ± 1.76 h; half-life ([2]; 0.3 mg/kg/day, oral QD, 0.3 mg/kg/day, read-out: t1/2, AM dose (converted)): 34.3 ± 20.3 h; half-life ([2]; 2 mg/kg/day, oral BID, 2 mg/kg/day, evening dose, read-out: t1/2, PM dose (converted)): 4.99 ± 0.33 h; half-life ([2]; 2 mg/kg/day, oral BID, 2 mg/kg/day, morning dose, read-out: t1/2, AM dose (converted)): 10.2 ± 1.47 h; half-life ([2]; 3 mg/kg/day, oral QD, 3 mg/kg/day, read-out: t1/2, AM dose (converted)): 5.14 ± 0.5 h; half-life ([2]; 20 mg/kg/day, oral BID, 20 mg/kg/day, evening dose, read-out: t1/2, PM dose (converted)): 4.33 ± 0.16 h; half-life ([2]; 20 mg/kg/day, oral BID, 20 mg/kg/day, morning dose, read-out: t1/2, AM dose (converted)): 7.81 ± 1.38 h; half-life ([2]; 30 mg/kg/day, oral QD, 30 mg/kg/day, read-out: t1/2, AM dose (converted)): 4.41 ± 0.18 h; AUC(0-t) ([2]; oral BID, 0.2 mg/kg/day, read-out: AUC0–24h): 0.377 ± 0.078 µg·h/mL; AUC(0-t) ([2]; oral BID, 0.2 mg/kg/day, read-out: AUC(0–24)): 0.9 ± 0.18 µM·h; AUC(0-t) ([2]; oral BID, 2 mg/kg/day, read-out: AUC0–24h): 9.82 ± 1.81 µg·h/mL; AUC(0-t) ([2]; oral BID, 2 mg/kg/day, read-out: AUC(0–24)): 23.4 ± 4.32 µM·h; AUC(0-t) ([2]; oral BID, 20 mg/kg/day, read-out: AUC0–24h): 173 µg·h/mL; AUC(0-t) ([2]; oral BID, 20 mg/kg/day, read-out: AUC(0–24)): 412 ± 89.6 µM·h; AUC(0-t) ([2]; oral QD, 0.3 mg/kg/day, read-out: AUC0–24h): 1.04 ± 0.291 µg·h/mL; AUC(0-t) ([2]; oral QD, 0.3 mg/kg/day, read-out: AUC(0–24)): 2.46 ± 0.69 µM·h; AUC(0-t) ([2]; oral QD, 3 mg/kg/day, read-out: AUC0–24h): 11.7 µg·h/mL; AUC(0-t) ([2]; oral QD, 3 mg/kg/day, read-out: AUC(0–24)): 27.9 ± 5.53 µM·h; AUC(0-t) ([2]; oral QD, 30 mg/kg/day, read-out: AUC0–24h): 266 µg·h/mL; AUC(0-t) ([2]; oral QD, 30 mg/kg/day, read-out: AUC(0–24)): 634 ± 52.4 µM·h
